The record followed here is US20260053931A1, “MDM2 TARGETING PROTACS” (THE WISTAR INSTITUTE OF ANATOMY AND BIOLOGY, priority 2023, published 2026).

Bounds are passed on as bounds.

In experiment [1] the test system is OVCAR3. As to the kind of experiment: Cell death of other cancer cell lines: OVCAR3. In kind it is cell-based. The conditions noted are these: Homo sapiens, OVCAR-3; OVCAR3, Ovarian. On the procedure: (§1) The PROTACs prepared herein were tested for their use in other cancer cell lines to determine activity in multiple different types of cancer.
Experiment [2] has as its system Cal27. In words: Cell death of other cancer cell lines: Cal27. In kind it is cell-based. The conditions noted are these: Homo sapiens, CAL-27; Cal27, Head & Neck. On the procedure:
as §1

In experiment [3] the test system is DE1069. In words: Cell death of other cancer cell lines: DE1069. In kind it is cell-based. The note with it: DE1069, Sarcoma, Mouse. On the procedure:
as §1

The test system of experiment [4] is TNBC patient-derived explants. In words: Patient-derived TNBC explants. In kind it is cell-based, human. On the procedure: FIGS. 27A-27E show TP53 mutant TNBC patient-derived explants undergo apoptosis following treatment with the MDM2-PROTAC YX-02-030. A. TP53 sequenced in five fresh TNBC patient samples and used in explant and 3D mammosphere cultures. B-C. TNBC patient-derived explants were treated with the compounds indicated and Western blotting (B) and immunohistochemistry (IHC) of FFPE sections for cleaved Caspase-3 (C, n=3 paired patient samples) were performed. Representative images of H&E and cleaved Caspase-3 (CC3) IHC shown, including normal breast epithelium treated with MDM2-PROTAC YX-02-030; scale bar 300 m. D-E. Mammosphere cultures were established from TNBC patient samples, treated with the indicated compounds, and live-cell detection of Caspase-3/7 activity (D, quadruplicate) and mammosphere survival/ATP production (E, quadruplicate) were measured.
To assess the effects of YX-02-030 on TNBC patient samples, fresh, surgically-resected tumor from five TNBC patients was obtained, and 80% were from Black/African American patients (FIG. 26). Each tumor had TP53 missense mutations with two having the same hot-spot (R248Q) p53 mutation and one that had 3 TP53 mutations (FIG. 27A). […]

The test system of experiment [5] is MDA-MB-231 mammospheres. In words: Area of formed mammospheres, MDA-MB-231. In kind it is cell-based, human. The note with it: MDA-MB-231, 3-fold lower concentration than the MDM2 inhibitors, 72 hr. On the procedure:
FIGS. 21A-21E show the apoptosis induction of p53-inactivated TNBC cells in 2D and 3D cultures by the MDM2-PROTAC YX-02-030. A-B. Colony formation assays (A. Triplicate, 12 days) and mammosphere formation (B. Triplicate 72 hrs) of MDA-MB-231 and MDA-MB-436 cells in the presence of the indicated compounds or DMSO control (−); representative pictures shown. C-E. Formed mammospheres of MDA-MB-231 and MDA-MB-436 cells were treated with the compounds indicated or DMSO control (−), and area (C. n=10 mammospheres, relative to pre-treatment area, 72 hr), real-time imaging (IncuCyte) and quantification of Caspase-3/7 activity (D. n=4-5 wells/compound), and survival/ATP assays (E. Quadruplicate, 72 hr) were performed; representative images shown; scale bar 300 m. Mean±SEM (A-C and E). For A, *P<0.0001 and **P<0.0001, comparing 1 M and 2 M PROTAC, respectively, to control compounds and DMSO vehicle control. For B, *P<0.0046, **P<0.0001, and ***P<0.0001, comparing 0.5 M, 1 M, and 2 M PROTAC, respectively, to control compounds and DMSO vehicle control. For C, *P<0.0001 and **P<0.0001, comparing 2 M and 4 M/6 M PROTAC, respectively, to control compounds and DMSO vehicle control. […]
These were then evaluated in 3D culture as to when the YX-02-030 was effective at preventing TNBC cell mammosphere formation and eliminating already formed mammospheres. […]

For experiment [6], the target named is VHL (Homo sapiens, UniProt P40337). In words: HTRF binding assay for VHL (Table 2). The source says: Biochemical assays in 384-well format have established to assess the binding of newly synthesized PROTACs to the appropriate E3 ligase using HTRF technology. In these assays an anti-HIS antibody conjugated to terbium was used as the donor fluor, and either a Cy5 labeled small molecule probe, or a biotinylated peptide that is bound to a streptavidin acceptor.
VHL, sequence (P40337 whole entry): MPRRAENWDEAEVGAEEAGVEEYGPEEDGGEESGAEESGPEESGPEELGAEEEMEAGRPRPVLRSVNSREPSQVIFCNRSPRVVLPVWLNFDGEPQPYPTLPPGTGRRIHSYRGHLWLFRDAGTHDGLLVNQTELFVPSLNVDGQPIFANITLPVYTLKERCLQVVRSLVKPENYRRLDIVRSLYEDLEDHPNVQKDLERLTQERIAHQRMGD
VHL, sequence (Q15370 whole entry partner): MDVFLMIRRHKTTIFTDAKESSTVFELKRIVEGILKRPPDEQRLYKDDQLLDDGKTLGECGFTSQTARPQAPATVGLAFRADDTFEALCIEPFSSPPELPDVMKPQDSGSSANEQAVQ
VHL, sequence (Q15369 whole entry partner): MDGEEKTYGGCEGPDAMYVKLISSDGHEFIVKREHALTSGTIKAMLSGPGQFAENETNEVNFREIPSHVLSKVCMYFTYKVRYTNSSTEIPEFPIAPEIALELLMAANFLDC

With `CCOc1cc(C(C)(C)C)ccc1C1=N[C@](C)(c2ccc(Cl)cc2)[C@](C)(c2ccc(Cl)cc2)N1C(=O)N1CCN(CC(=O)NCCOCCOCCOCC(=O)N[C@H](C(=O)N2C[C@H](O)C[C@H]2C(=O)NCc2ccc(-c3scnc3C)cc2)C(C)(C)C)CC1` (racemic) [YX-02-030], the IC50 in experiment [1] amounted to 4.5 µM; in experiment [2] it was 2.3 µM; in experiment [3] it was 6.1 µM. Also, the “apoptosis markers by Western blot” value in experiment [4] (explants) is “increased levels of cleaved Caspase-3 and cleaved PARP”. The “MDM2 protein in patient tumors” value in experiment [4] (within 4 days of treatment) is reported as “MDM2 protein was lost”. Further, the “reduction of mammosphere area” value in experiment [5] turned out to be 49.5%.
As to `CCOc1cc(C(C)(C)C)ccc1C1=N[C@](C)(c2ccc(Cl)cc2)[C@](C)(c2ccc(Cl)cc2)N1C(=O)N1CCN(CC(=O)NCCCNC(=O)COc2ccc3c(c2)CN(C(=O)[C@H](NC(=O)[C@@H](C)NC)C(C)(C)C)[C@@H](C(=O)N[C@H]2CCCc4ccccc42)C3)CC1` [YX-02-228, (R)-7-(2-((3-(2-(4-((4R,5S)-2-(4-(tert-butyl)-2-ethoxyphenyl)-4,5-bis(4-chlorophenyl)-4,5-dimethyl-4,5-dihydro-1H-imidazole-1-carbonyl)piperazin-1-yl)acetamido)propyl)amino)-2-oxoethoxy)-2-((R)-3,3-dimethyl-2-((R)-2-(methylamino)propanamido)butanoyl)-N-((S)-1,2,3,4-tetrahydronaphthalen-1-yl)-1,2,3,4-tetrahydroisoquinoline-3-carboxamide], the IC50 in experiment [6] was above 10 µM.
